Literature values, collected in patent US20210386367A1, “DEVICES AND SYSTEMS FOR GASTROINTESTINAL MICROBIOME DETECTION AND MANIPULATION” (Progenity, Inc., priority 2018, published 2021).
Converted amounts (≈) assume the structure as drawn. Where two headings read alike, the source gives them in different places.

Key:
Conditions in all cases: cited from earlier work
[1] = system: Staphylococcus aureus
[2] = system: Streptococcus agalactiae
[3] = system: Escherichia coli
[4] = system: Lactobacillus spp.
[5] = system: Klebsiella pneumoniae
[6] = system: Bacteroides fragilis
[7] = system: Bacteroides spp.
[8] = system: Bacteroides thetaiotaomicron
[9] = system: Fusobacterium nucleatum
[10] = system: Fusobacterium spp
[11] = system: Clostridium spp.
[12] = system: Veillonella spp
[13] = system: E. coli ATCC 35218 (TEM-1 β-lactamase producer)
[14] = system: Staphylococcus aureus; remark: listed apart in the source
[15] = system: MDR Enterobacteriaceae
[16] = system: Escherichia coli; remark: listed apart in the source
[17] = system: Citrobacter spp.
[18] = system: Citrobacter spp.; remark: listed apart in the source
[19] = system: Proteus mirabilis
[20] = system: Haemophilus influenzae
[21] = system: Bacteroides thetaiotaomicron; remark: listed apart in the source
[22] = system: Bacteroides vulgatus
[23] = system: Prevotella bivia
[24] = system: Staphylococcus aureus; remark: listed apart in the source
[25] = system: Enterococcus faecalis
[26] = system: Enterococcus spp.
[27] = system: Enterobacteriaceae
[28] = system: Escherichia coli; remark: listed apart in the source
[29] = system: Escherichia coli; remark: listed apart in the source
[30] = system: Enterobacter spp.
[31] = system: Klebsiella spp.
[32] = system: Bacteroides thetaiotaomicron; remark: listed apart in the source
[33] = system: Bacteroides vulgatus; remark: listed apart in the source
[34] = system: Prevotella spp.

In the case of `CO/N=C(\C(=O)N[C@@H]1C(=O)N2C(C(=O)O)=C(CSc3nc(=O)c(=O)[nH]n3C)CS[C@H]12)c1csc(N)n1` [ceftriaxone], the “% S” value [1] is listed as 54.5%, the MIC50 [1] is listed as 4 µg/mL (≈ 7.21 µM) and the MIC90 [1] is listed as >8 µg/mL. For the same compound, the MIC50 [2] was 0.025 µg/mL (≈ 0.0451 µM), the MIC90 [2] was 0.1 µg/mL (≈ 0.18 µM) and the “MIC range” value [2] was 0.012 to 0.1 µg/mL. The “% S” value [3] was 87%, the MIC50 [3] was ≤0.25 µg/mL and the MIC90 [3] was 32 µg/mL (≈ 57.7 µM). For the same compound, the MIC50 [4] was 4 µg/mL (≈ 7.21 µM), the MIC90 [4] was 8 µg/mL (≈ 14.4 µM) and the “MIC range” value [4] was 0.12 to 64 µg/mL. For the same compound, the “% S” value [5] was 67%, the MIC50 [5] was ≤0.25 µg/mL and the MIC90 [5] was >64 µg/mL. For the same compound, the “% S” value [6] was 15%, the MIC50 [6] was 32 µg/mL (≈ 57.7 µM) and the MIC90 [6] was >32 µg/mL. The MIC50 [7] was >128 µg/mL, the MIC90 [7] was >128 µg/mL and the “% S” value [8] was 2%. The MIC50 [8] was 32 µg/mL (≈ 57.7 µM), the MIC90 [8] was >32 µg/mL and the “% S” value [9] was 100%. The MIC50 [9] was 0.125 µg/mL (≈ 0.225 µM), the MIC90 [9] was 0.5 µg/mL (≈ 0.902 µM) and the “MIC range” value [9] was 0.015 to 1 µg/mL. For the same compound, the “% S” value [10] was 87%, the MIC50 [10] was 0.5 µg/mL (≈ 0.902 µM) and the MIC90 [10] was 32 µg/mL (≈ 57.7 µM). The “% S” value [11] was 75%, the MIC50 [11] was 2 µg/mL (≈ 3.61 µM) and the “% S” value [12] was 79%. For the same compound, the MIC50 [12] was 4 µg/mL (≈ 7.21 µM), the MIC90 [12] was 8 µg/mL (≈ 14.4 µM) and the “MIC range” value [12] was 0.03 to 8 µg/mL.
In the case of `C[C@@H](O)[C@H]1C(=O)N2C(C(=O)O)=C(S[C@@H]3CN[C@H](C(=O)N(C)C)C3)[C@H](C)[C@H]12` [meropenem], the “CLSI QC range (MIC)” value [13] is listed as “(0.008-0.06) μg/mL”, the MIC50 [14] is listed as ≤0.12 µg/mL and the MIC90 [14] is listed as 4 µg/mL (≈ 10.4 µM). For the same compound, the “% S” value [15] was 75%, the MIC50 [15] was ≤0.12 µg/mL and the MIC90 [15] was >8 µg/mL. The “% S” value [16] was 83.1%, the MIC50 [16] was ≤0.06 µg/mL and the MIC90 [16] was 32 µg/mL (≈ 83.4 µM). The “% S” value [17] was 86.4%, the MIC50 [17] was ≤0.06 µg/mL and the MIC90 [17] was 4 µg/mL (≈ 10.4 µM). The “% S” value [18] was 99%, the MIC50 [18] was 0.03 µg/mL (≈ 0.0782 µM) and the MIC90 [18] was 0.06 µg/mL (≈ 0.156 µM). For the same compound, the “% S” value [19] was 95.5%, the MIC50 [19] was 0.12 µg/mL (≈ 0.313 µM) and the MIC90 [19] was 0.25 µg/mL (≈ 0.652 µM). For the same compound, the “MIC range” value [19] was 0.12 to 16 µg/mL, the MIC50 [20] was ≤0.125 µg/mL and the MIC90 [20] was 0.5 µg/mL (≈ 1.3 µM). The “% S” value [21] was 100%, the MIC50 [21] was 0.25 µg/mL (≈ 0.652 µM) and the MIC90 [21] was 0.5 µg/mL (≈ 1.3 µM). For the same compound, the “% S” value [22] was 100%, the MIC50 [22] was 0.5 µg/mL (≈ 1.3 µM) and the MIC90 [22] was 1 µg/mL (≈ 2.61 µM). For the same compound, the “MIC range” value [22] was 0.125 to 1 µg/mL, the “% S” value [23] was 100% and the MIC50 [23] was 0.03 µg/mL (≈ 0.0782 µM). For the same compound, the MIC90 [23] was ≤0.03 µg/mL and the “MIC range” value [23] was ≤0.03 to 0.06 µg/mL.
For `CO[C@H]1/C=C/O[C@@]2(C)Oc3c(C)c(O)c4c(O)c(c5c(nc6cc(C)ccn65)c4c3C2=O)NC(=O)/C(C)=C\C=C\[C@H](C)[C@H](O)[C@@H](C)[C@@H](O)[C@@H](C)[C@H](OC(C)=O)[C@@H]1C` [rifaximin], the “% S” value [24] is listed as 100%, the MIC50 [24] is listed as ≤0.25 µg/mL and the MIC90 [24] is listed as ≤0.25 µg/mL. The “MIC range” value [24] was ≤0.25 µg/mL, the “% S” value [25] was 100% and the MIC50 [25] was 4 µg/mL (≈ 5.09 µM). For the same compound, the MIC90 [25] was 16 µg/mL (≈ 20.4 µM), the “MIC range” value [25] was ≤0.25 to 16 µg/mL and the MIC50 [26] was 4 µg/mL (≈ 5.09 µM). The MIC90 [26] was 32 µg/mL (≈ 40.7 µM), the “MIC range” value [26] was ≤0.06 to 32 µg/mL and the MIC50 [27] was 32 µg/mL (≈ 40.7 µM). The MIC90 [27] was >128 µg/mL, the “% S” value [28] was 85.4% and the MIC50 [28] was 16 µg/mL (≈ 20.4 µM). For the same compound, the MIC90 [28] was 64 µg/mL (≈ 81.4 µM), the “MIC range” value [28] was 4 to 64 µg/mL and the MIC50 [29] was 32 µg/mL (≈ 40.7 µM). For the same compound, the MIC90 [29] was 128 µg/mL (≈ 163 µM), the “% S” value [30] was 34.8% and the MIC50 [30] was 64 µg/mL (≈ 81.4 µM). The MIC90 [30] was 128 µg/mL (≈ 163 µM), the “MIC range” value [30] was 32 to 128 µg/mL and the “% S” value [31] was 43.6%. For the same compound, the MIC50 [31] was 64 µg/mL (≈ 81.4 µM), the MIC90 [31] was 128 µg/mL (≈ 163 µM) and the “MIC range” value [31] was 8 to 128 µg/mL. For the same compound, the MIC50 [32] was 1 µg/mL (≈ 1.27 µM), the MIC90 [32] was >1024 µg/mL and the MIC50 [33] was 0.25 µg/mL (≈ 0.318 µM). The MIC90 [33] was 0.5 µg/mL (≈ 0.636 µM), the “MIC range” value [33] was 0.25 to 4 µg/mL and the MIC50 [34] was 0.25 µg/mL (≈ 0.318 µM). For the same compound, the MIC90 [34] was 0.5 µg/mL (≈ 0.636 µM) and the “MIC range” value [34] was 0.25 to 1 µg/mL.
